Measurements: patent US8613929B2, “Methods and compositions for targeting agents into and across the blood-brain barrier and other endothelial cell microvascular barriers” (priority 2003, dated 2013)

Columns and labels:
[1] = system: BCEC+ astrocyte co-cultures; conditions: FIG. 2; earlier experiments (Gaillard 2000a); cited from earlier work
[2] = biological target: LPSS14 (DTR) (Bos taurus, UniProt E1BIN8); format: cell-based, bovine
[3] = system: brain cortex; test: In vivo brain distribution: HRP activity in brain cortex homogenate samples; parameters: species or system Guinea pigs; conditions: 1.5 h after intracarotid bolus injection, 500 microgram/ml HRP equivalent in 0.5 ml saline (FIG. 18)
Experimental: Brain uptake of CRM197 or holo-transferrin (TrF) conjugated to HRP (2:1 weight/weight ratio) was determined 1.5 h after an intracarotid bolus injection of the conjugates (corresponding to a concentration of 500 microgram/ml in 0.5 ml saline of un-conjugated HRP), and compared to an equal concentration of free HRP, in young male Guinea pigs (Dunkin-Hartley HsdPoc:HD, 250-300 g). The proteins were conjugated to HRP by means of a HRP conjugation kit according to the manufacturers instructions (α Diagnostic International, San Antonio, Tex., USA). In addition, conjugated proteins were further purified on a HiPrep 16/60 column packed with Sephacryl S-200 HR matrix (Amersham Biosciences, UK). Briefly, the animals were anesthetized with isoflurane inhalation (4% induction, 1-1.5% maintenance) in an air/oxygen mixture (2:1). A cannula was placed in the carotid artery for blood sample collection and drug administration. […]
The cortex of perfused brains (and one non-perfused control brain) was dissected and weighted. […] Tissue/cells were lysed by an aqueous solution of 0.1% Na-deoxycholate (final concentration) before the HRP activity was detected in the clear supernatant of the spun-down homogenates using a standard colorimetric assay with the appropriate calibration curves and corrections for dilutions and protein content of the supernatants.

[4] = system: brain cortex; conditions: 1.5 h after intracarotid bolus injection (FIG. 19)
[5] = system: brain; conditions: guinea pig, in vivo

LPSS14 (DTR), sequence (E1BIN8 24-208 limits assumed): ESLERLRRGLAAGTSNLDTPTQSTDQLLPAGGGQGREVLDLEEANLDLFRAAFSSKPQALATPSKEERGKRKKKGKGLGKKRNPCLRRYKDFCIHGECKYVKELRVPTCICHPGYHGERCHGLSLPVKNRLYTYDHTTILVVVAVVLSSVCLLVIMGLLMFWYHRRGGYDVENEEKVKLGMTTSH

C[C@@H]1C[C@@H]([C@H](O)CC2CC(=O)NC(=O)C2)C(=O)[C@@H](C)C1 [cycloheximide]
recovery of BCEC+ astrocyte co-cultures from LPS [1]: completely inhibit the recovery phase

heparin
toxicity consistent with a higher concentration of DT ([2]; heparin 125 microgram/ml 1 h pretreatment, 100 ng/ml DT): 10 fold
DT toxic effect took place earlier than untreated controls ([2]; heparin 125 microgram/ml 1 h pretreatment, 100 ng/ml DT (FIG. 9)): about 1 hour
toxic effect after apical exposure to 100 ng/ml DT on pretreated BCEC ([2]; pretreatment: CRM197 5 microgram/ml 1 h, heparin 125 microgram/ml 1 h, LPS 1 microgram/ml 2 h, BB94 10 micromolar 1 h (FIG. 8-10)): increased

free HRP: un-conjugated horseradish peroxidase, a 40 kDa enzyme
HRP activity in brain cortex homogenate samples (homogenate, parenchyma, capillaries) [3]: below the detection limit
TMB staining of cryosections of well-perfused brains [4]: no visible staining
staining for CRM197 by immunohistochemistry for diphtheria toxin [5]: not observed
